Experimental data as given in ChEMBL document CHEMBL5653631, “A Potent and Selective ULK1 Inhibitor Suppresses Autophagy and Sensitizes Cancer Cells to Nutrient Stress” (iScience, 2018).
Values belong to the compound of their own block, whether it stands above or below them.

Columns and labels:
[1] = molecular target: T1, Ephrin type-B receptor 4 (Homo sapiens) (UniProt P54760); assay: Inhibition of human recombinant EphB4 at 500 nM in presence of ATP by radiometric assay relative to control
T1 sequence (whole entry): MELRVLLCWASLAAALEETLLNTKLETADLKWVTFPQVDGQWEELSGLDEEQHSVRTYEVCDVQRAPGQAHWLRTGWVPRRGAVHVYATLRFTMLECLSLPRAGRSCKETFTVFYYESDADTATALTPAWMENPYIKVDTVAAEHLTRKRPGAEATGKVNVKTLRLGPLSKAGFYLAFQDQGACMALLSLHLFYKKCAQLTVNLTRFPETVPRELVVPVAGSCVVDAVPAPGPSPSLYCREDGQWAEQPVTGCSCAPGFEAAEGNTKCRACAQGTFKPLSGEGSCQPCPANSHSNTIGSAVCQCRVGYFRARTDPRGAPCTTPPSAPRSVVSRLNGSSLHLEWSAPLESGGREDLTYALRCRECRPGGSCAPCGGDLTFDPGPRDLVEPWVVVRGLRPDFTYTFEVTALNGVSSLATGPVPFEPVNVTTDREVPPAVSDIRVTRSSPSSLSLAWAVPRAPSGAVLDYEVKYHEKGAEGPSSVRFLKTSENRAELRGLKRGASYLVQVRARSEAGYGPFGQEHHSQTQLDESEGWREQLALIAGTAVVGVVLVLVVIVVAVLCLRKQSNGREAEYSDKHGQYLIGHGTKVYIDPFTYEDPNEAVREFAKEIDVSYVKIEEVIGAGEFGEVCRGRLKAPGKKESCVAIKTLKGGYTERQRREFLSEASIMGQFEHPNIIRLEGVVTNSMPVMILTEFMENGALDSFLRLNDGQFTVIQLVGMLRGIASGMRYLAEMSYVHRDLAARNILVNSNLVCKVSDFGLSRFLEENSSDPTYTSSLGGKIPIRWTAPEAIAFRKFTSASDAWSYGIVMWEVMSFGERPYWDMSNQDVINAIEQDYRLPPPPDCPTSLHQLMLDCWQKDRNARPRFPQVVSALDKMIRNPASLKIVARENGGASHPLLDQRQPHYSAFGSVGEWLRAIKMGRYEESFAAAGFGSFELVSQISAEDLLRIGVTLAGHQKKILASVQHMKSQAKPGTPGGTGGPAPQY

[2] = molecular target: Non-receptor tyrosine-protein kinase TYK2 (Homo sapiens) (UniProt P29597); assay: Inhibition of human recombinant TYK2 at 500 nM in presence of ATP by radiometric assay relative to control
[3] = molecular target: T2, Serine/threonine-protein kinase Nek3 (Homo sapiens) (UniProt P51956); assay: Inhibition of human recombinant NEK3 at 500 nM related to control ULK1
T2 sequence (whole entry): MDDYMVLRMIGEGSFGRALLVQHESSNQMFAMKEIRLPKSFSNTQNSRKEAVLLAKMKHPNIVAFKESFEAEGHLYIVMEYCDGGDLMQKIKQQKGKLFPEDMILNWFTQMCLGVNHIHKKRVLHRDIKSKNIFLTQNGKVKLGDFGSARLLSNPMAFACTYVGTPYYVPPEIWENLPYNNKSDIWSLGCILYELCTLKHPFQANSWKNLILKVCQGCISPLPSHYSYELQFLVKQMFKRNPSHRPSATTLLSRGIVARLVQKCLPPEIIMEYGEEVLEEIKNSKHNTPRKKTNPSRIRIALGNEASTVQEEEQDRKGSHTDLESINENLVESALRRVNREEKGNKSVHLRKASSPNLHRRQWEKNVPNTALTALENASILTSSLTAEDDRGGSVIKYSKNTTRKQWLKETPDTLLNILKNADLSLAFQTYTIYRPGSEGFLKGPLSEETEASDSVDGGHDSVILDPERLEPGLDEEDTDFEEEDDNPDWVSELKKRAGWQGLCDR

[4] = molecular target: Dual specificity protein kinase CLK3 (Homo sapiens) (UniProt P49761); assay: Inhibition of human recombinant CLK3 at 40 nM in presence of ATP by radiometric assay relative to control
[5] = molecular target: Mitogen-activated protein kinase 1 (Homo sapiens) (UniProt P28482); assay: Inhibition of human recombinant Erk2 at 40 nM in presence of ATP by radiometric assay relative to control
[6] = molecular target: Homeodomain-interacting protein kinase 3 (Homo sapiens) (UniProt Q9H422); assay: Inhibition of human recombinant HIPK3 at 40 nM in presence of ATP by radiometric assay relative to control
[7] = molecular target: Serine/threonine-protein kinase 38-like (Homo sapiens) (UniProt Q9Y2H1); assay: Inhibition of human recombinant NDR2 at 40 nM in presence of ATP by radiometric assay relative to control
[8] = molecular target: T3, Mitogen-activated protein kinase 12 (Homo sapiens) (UniProt P53778); assay: Inhibition of human recombinant p38gamma at 40 nM in presence of ATP by radiometric assay relative to control
T3 sequence (whole entry): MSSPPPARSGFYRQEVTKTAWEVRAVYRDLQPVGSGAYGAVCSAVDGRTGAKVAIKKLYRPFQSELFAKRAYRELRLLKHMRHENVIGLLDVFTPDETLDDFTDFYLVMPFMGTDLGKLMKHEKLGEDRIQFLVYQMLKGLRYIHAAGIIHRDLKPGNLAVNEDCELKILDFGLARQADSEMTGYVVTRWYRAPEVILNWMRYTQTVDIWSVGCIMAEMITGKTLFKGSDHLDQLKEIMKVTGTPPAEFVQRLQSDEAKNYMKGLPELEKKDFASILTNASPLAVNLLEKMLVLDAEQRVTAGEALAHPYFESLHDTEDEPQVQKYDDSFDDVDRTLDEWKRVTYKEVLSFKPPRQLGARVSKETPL

[9] = molecular target: Interferon-induced, double-stranded RNA-activated protein kinase (Homo sapiens) (UniProt P19525); assay: Inhibition of human recombinant PKR at 40 nM in presence of ATP by radiometric assay relative to control
[10] = molecular target: Activin receptor type-2A (Homo sapiens) (UniProt P27037); assay: Inhibition of human recombinant ACTR2 at 40 nM in presence of ATP by radiometric assay relative to control
[11] = molecular target: SRSF protein kinase 1 (Homo sapiens) (UniProt Q96SB4); assay: Inhibition of human recombinant SRPK1 at 15 nM in presence of ATP by radiometric assay relative to control
[12] = molecular target: Cyclin-dependent kinase 1 (Homo sapiens) (UniProt P06493); assay: Inhibition of human recombinant CDC2 at 15 nM related to control ULK1
[13] = molecular target: Dual specificity tyrosine-phosphorylation-regulated kinase 1B (Homo sapiens) (UniProt Q9Y463); assay: Inhibition of human recombinant DYRK1B at 15 nM related to control ULK1
[14] = molecular target: Serine/threonine-protein kinase VRK2 (Homo sapiens) (UniProt Q86Y07); assay: Inhibition of human recombinant VRK2 at 15 nM related to control ULK1

inhibition [1]: 0%
inhibition [2]: 78%
fold change (FC) [3]: 0.09
SMILES: CNC(=O)c1ccccc1Oc1nc(Nc2cc(OC)c(OC)c(OC)c2)ncc1Br

inhibition [4]: 0%
inhibition [5]: 0%
inhibition [6]: 5%
inhibition [7]: 0%
inhibition [8]: 0%
inhibition [9]: 0%
inhibition [10]: 1%
SMILES: O=C(N[C@@H](C1CC1)C(F)(F)F)c1cc(-c2cnn3cc(-c4ccc(F)cc4)cnc23)cs1

inhibition [11]: 0%
fold change (FC) [12]: 0.27
fold change (FC) [13]: 0.74
fold change (FC) [14]: 0
SMILES: CC(C)[C@H](NC(=O)c1cc(-c2cnn3cc(-c4ccc(OCCN5CCCCC5)cc4)cnc23)cs1)C(F)(F)F
